From article PMC6491728, “Application of in vitro Drug Metabolism Studies in Chemical Structure Optimization for the Treatment of Fibrodysplasia Ossificans Progressiva (FOP)” (Frontiers in Pharmacology, 2019)
pIC50: −log10 of the molar value. In brackets after ≈: the same amount, converted by molar mass. Read-outs that look alike come from different tables or passages of the source.

Columns and labels:
ALK2 = biological target: T1, ALK2 (Mus musculus, UniProt P37172); assay: BMP6-stimulated SMAD1/5/8 phosphorylation in C2C12 cells (HTRF); format: cell-based; conditions: for pIC50: C2C12 cells, SMAD1/5/8 phosphorylation, HTRF, read-out: BMP6 (mediated by ALK2) IC50
T1 construct: determined in C2C12 cell lines (ATCC; Manassas, VA, United States); host or cells: C2C12
T1 sequence (P37172 21-509): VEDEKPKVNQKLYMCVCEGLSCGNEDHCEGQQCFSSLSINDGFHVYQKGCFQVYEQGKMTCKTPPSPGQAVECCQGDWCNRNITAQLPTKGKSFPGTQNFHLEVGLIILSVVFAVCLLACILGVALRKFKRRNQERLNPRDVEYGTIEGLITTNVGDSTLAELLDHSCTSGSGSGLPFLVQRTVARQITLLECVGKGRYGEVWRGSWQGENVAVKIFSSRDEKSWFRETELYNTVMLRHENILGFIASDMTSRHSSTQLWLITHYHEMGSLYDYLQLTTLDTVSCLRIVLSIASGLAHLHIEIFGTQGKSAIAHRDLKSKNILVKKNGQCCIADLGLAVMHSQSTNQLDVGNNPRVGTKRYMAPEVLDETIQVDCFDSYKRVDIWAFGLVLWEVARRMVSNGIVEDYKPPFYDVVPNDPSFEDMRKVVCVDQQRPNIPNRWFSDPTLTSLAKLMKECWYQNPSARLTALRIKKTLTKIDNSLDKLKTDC
Method: (§1) The in vitro activity toward to ALK2 and the selectivity over ALK3 and ALK5 were determined in C2C12 cell lines (ATCC; Manassas, VA, United States) through measuring the phosphorylation level of SMAD1/5/8 (for ALK2 and ALK3) or SMAD2/3 (for ALK5) under the stimulation of BMP6 (mediated by ALK2), BMP4 (mediated by ALK3) and TGFβ (mediated by ALK5), respectively, by using homogeneous time resolved fluorescence (HTRF; a manuscript in preparation).

ALK5 = biological target: T2, ALK5 (Mus musculus, UniProt Q64729); assay: TGFβ-stimulated SMAD2/3 phosphorylation in C2C12 cells (HTRF); format: cell-based
T2 construct: determined in C2C12 cell lines (ATCC; Manassas, VA, United States); host or cells: C2C12
T2 sequence (Q64729 30-503): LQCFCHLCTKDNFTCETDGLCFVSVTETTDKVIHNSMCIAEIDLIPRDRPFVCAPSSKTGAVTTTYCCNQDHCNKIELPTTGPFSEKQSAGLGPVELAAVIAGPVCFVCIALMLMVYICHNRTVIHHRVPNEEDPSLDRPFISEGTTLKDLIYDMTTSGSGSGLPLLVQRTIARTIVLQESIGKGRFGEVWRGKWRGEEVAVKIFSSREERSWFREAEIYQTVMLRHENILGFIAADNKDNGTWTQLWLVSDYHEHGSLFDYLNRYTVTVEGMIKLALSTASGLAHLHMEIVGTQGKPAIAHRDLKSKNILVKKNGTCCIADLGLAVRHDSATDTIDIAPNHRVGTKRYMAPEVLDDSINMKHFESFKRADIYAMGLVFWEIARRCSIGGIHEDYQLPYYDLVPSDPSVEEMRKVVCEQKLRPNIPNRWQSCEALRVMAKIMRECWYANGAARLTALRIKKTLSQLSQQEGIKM
Method: as §1

[1] = In vitro metabolic stability screening assay with rat liver microsomes; format: in vitro ADME; conditions: rat liver microsomes 0.5 mg/mL, 1 μM compound, single time point 15 min, 37°C; read-out: Microsomal Stability t1/2
Method: In vitro metabolic stability screening assay was conducted with rat liver microsomes in a 96-well plate, where 1 μM of compound was incubated with 0.5 mg/mL of rat liver microsomal protein. A single time point was collected at 15 min after an incubation at 37°C. […] When the half-life was greater than 30 min, results were presented as >30 min.

[2] = Stirring double-sink PAMPA permeability; format: in vitro ADME; conditions: passive diffusion
Method: Parallel Artificial Membrane Permeability Assay (PAMPA) was employed to determine the passive diffusion permeability of LDN-193189 and analogs. Stirring double-sink PAMPA method (pION Inc.) was employed to determine the permeability of compounds. The method was performed as described previously ([Sun et al., 2017]).

[3] = Kinetic solubility (μSOL Evolution, pH 7.4 phosphate buffer); format: physicochemical; conditions: pH 7.4, aqueous buffer, kinetic from dmso stock
Method: Kinetic solubility was measured using the μSOL Evolution system from pION Inc. (Billerica, MA, United States). Saturation shake-flask solubility method was adapted as previously described ([Avdeef and Berger, 2001]). Briefly, 10 mM DMSO stock was diluted to a final drug concentration of 150 μM in the aqueous solution (pH 7.4, 100 mM phosphate buffer) in duplicates. The solution was kept at room temperature for 6 h for equilibration. After equilibration, precipitates were removed using Tecan Te-Vac vacuum-filter and the compound concentration was measured by UV absorbance (λ: 250–498 nm). Data was compared to a fully solubilized reference solution of the test article at 17 μM in spectroscopically pure n-propanol. The kinetic solubility (μg/mL) was calculated using the μSOL Evolution software.

[4] = Metabolite profiling in human liver microsomes and cytosol (LC/UV/MS, inhibitors, trapping)
ALK3 = biological target: T3, ALK3 (Mus musculus, UniProt P36895); assay: BMP4-stimulated SMAD1/5/8 phosphorylation in C2C12 cells (HTRF); format: cell-based; conditions: read-out: BMP4 (mediated by ALK3) IC50
T3 construct: determined in C2C12 cell lines (ATCC; Manassas, VA, United States); host or cells: C2C12
Method: as §1

[5] = Metabolite formation in human and mouse liver subcellular fractions (LC/UV/MS, trapping); format: in vitro ADME; conditions: for cyanide (KCN) adduct: KCN trapping; for metabolism in cytosol incubation (AO-mediated): liver cytosol; for GSH adduct: microsomal incubation with NADPH and GSH, mouse and human; for Species in which the metabolite of Compound 2 was observed / Species in which the metabolite of Compound 3 was observed: H human, M mouse
[6] = Metabolite profiling of LDN-193189 in liver microsomal/cytosolic fractions of six species (LC/UV/MS, GSH and KCN trapping); conditions: for Species in which the metabolite of LDN-193189 was observed: LDN-193189 10 μM, 60 min, M mouse, R rat, Rb rabbit, D dog, Mo monkey, H human; for metabolite found in rat microsomal incubation with LDN-193189: rat liver microsomes
Method: Total incubation volume per sample was 1 mL. The metabolic reactions were initiated by the addition of cofactors, NADPH-regenerating system and UDPGA, after a pre-incubation at 37°C for 5 min. The incubation mixtures were placed in a shaking water bath at 37°C for 60 min. At the end of the reaction, three volumes of ACN were added, followed by vortexing and centrifugation to remove proteins. The supernatants were transferred to clean tubes and dried completely under a stream of nitrogen at ambient temperature. The dried residues were reconstituted with 500 μL of 25% MeOH in water and transferred into HPLC vials for LC/UV/MS analysis.
Chromatography was accomplished on a Phenomenex Luna, C18 (2) column, 3.0 × 250 mm, 5 μm (Torrance, CA, United States). The column was kept at ambient temperature during sample analysis. The mobile phases were HPLC grade water (solvent A) and ACN (solvent B), both of which contained 0.1% trifluoroacetic acid (TFA). […] The first 4 min of the HPLC flow was diverted to waste prior to evaluation of metabolites.
To facilitate distinction of carbon or heteroatom oxidations, hydrogen/deuterium (H/D) exchange experiments were performed by replacing the aqueous mobile phase (H2O) with D2O while keeping the rest of assay conditions unchanged.
UV absorption spectra from 200 to 400 nm were recorded using a diode array detector. The Thermo Finnigan LTQ XL mass spectrometer was equipped with an electrospray ionization (ESI) interface and operated in positive ionization mode for metabolite profiling and identification. Mass spectra were acquired in full scan (MS) (m/z 200–1000) and data dependent scan (MS^2, MS^3, and MS^4) modes. The ESI spray voltage was +5kV with capillary temperature of 300°C. Sheath gas and auxiliary gas were 80 and 20 arbitrary units, respectively. Activation Q was 0.25 and Activation time 30 ms. The collision energy used to obtain fragments was set at 40 eV.

[7] = design: method as in Cuny et al., 2008; conditions: mice, intraperitoneal administration; ref Cuny et al., 2008; cited from earlier work
mouse FOP disease model = test system: mouse FOP disease model; design: method as in Yu et al., 2008a; conditions: ref Yu et al., 2008a; cited from earlier work
[8] = C2C12 cells, SMAD2/3 phosphorylation, HTRF, read-out: TGFβ (mediated by ALK5) IC50

T3 sequence (P36895 24-532): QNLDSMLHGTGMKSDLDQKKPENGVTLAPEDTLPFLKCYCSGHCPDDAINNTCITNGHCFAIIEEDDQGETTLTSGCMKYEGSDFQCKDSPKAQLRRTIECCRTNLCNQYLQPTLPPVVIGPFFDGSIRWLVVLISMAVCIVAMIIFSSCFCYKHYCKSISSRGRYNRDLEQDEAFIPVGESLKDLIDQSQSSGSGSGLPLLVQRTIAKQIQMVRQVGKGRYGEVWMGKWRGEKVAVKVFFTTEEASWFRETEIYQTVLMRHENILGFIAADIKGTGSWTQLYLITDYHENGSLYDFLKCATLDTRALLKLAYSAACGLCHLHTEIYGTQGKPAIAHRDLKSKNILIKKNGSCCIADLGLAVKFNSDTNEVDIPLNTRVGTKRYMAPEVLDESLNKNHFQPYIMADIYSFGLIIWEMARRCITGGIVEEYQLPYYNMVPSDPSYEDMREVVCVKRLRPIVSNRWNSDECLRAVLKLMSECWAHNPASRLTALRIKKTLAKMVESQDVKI

Cc1cc(-c2cnn3cc(-c4ccc(N5CCNCC5)cc4)cnc23)c2ccccc2n1 [Compound 1]
pIC50 (ALK2): 6.92 | pIC50 (ALK5): 6.01 | half-life at 1 μM [1]: > 30 min | Papp [2]: 4370 nm/s | solubility at 6 h [3]: 1 µg/mL (≈ 2.38 µM) | glucuronide conjugate ([4]; UDPGA-fortified human liver microsomes): No glucuronide conjugate was observed | metabolism in cytosol incubation (AO-mediated) ([4]; human liver cytosol): No metabolism was observed | extent of metabolism in human liver microsomes ([4]; human liver microsomes): metabolized moderately | GSH adduct in trapping experiments ([4]; human liver microsomes, GSH): no GSH or cyanide adduct was detected | cyanide adduct in trapping experiments ([4]; human liver microsomes, KCN): no GSH or cyanide adduct was detected | aniline derivatives ([4]; human microsomal fractions): No aniline derivatives were observed

c1ccc2c(-c3cnn4cc(-c5ccc(OCCN6CCCCC6)nc5)cnc34)ccnc2c1 [Compound 2]
pIC50 (ALK2): 6.64 | pIC50 (ALK3): 5.49 | pIC50 (ALK5; [8]): 4.56 | half-life at 1 μM [1]: 22 min | Papp [2]: 70 nm/s | solubility at 6 h [3]: < 1 µg/mL | aniline formation [5]: not detected | cyanide (KCN) adduct [5]: not detected | metabolism in cytosol incubation (AO-mediated) [5]: An oxidative metabolite was observed | GSH adduct [5]: observed only in mouse microsomal incubation

Cc1cc(-c2cnn3cc(-c4ccc(OCCN5CCCCC5)nc4)cnc23)c2ccccc2n1 [Compound 3]
pIC50 (ALK2): 6.33 | potency against ALK2 mediated signaling compared to LDN-193189 (ALK2; relative to LDN-193189): threefold less potent | pIC50 (ALK3): 5.36 | pIC50 (ALK5; [8]): 5.57 | half-life at 1 μM [1]: > 30 min | Papp [2]: 10700 nm/s | solubility at 6 h [3]: 36.2 µg/mL (≈ 77.9 µM) | aniline formation [5]: Neither aniline formation nor cytosolic metabolism were observed | cyanide (KCN) adduct [5]: No cyanide adduct or glucuronide conjugate was observed | glucuronide conjugate ([5]; UDPGA): No cyanide adduct or glucuronide conjugate was observed | metabolism in cytosol incubation (AO-mediated) [5]: No metabolite formation was observed | GSH adduct [5]: observed only in mouse microsomal incubation

Nc1ccc(-c2cnc3c(-c4ccnc5ccccc45)cnn3c2)cc1 [Compound M337]
Species in which the metabolite of LDN-193189 was observed [6]: M, Rb, D, Mo, H | metabolite found in rat microsomal incubation with LDN-193189 [6]: not found

NCCNc1ccc(-c2cnc3c(-c4ccnc5ccccc45)cnn3c2)cc1 [Compound M380]
metabolite found in rat microsomal incubation with LDN-193189 [6]: not found

OCCNc1ccc(-c2cnc3c(-c4ccnc5ccccc45)cnn3c2)cc1 [Compound M381]
Species in which the metabolite of LDN-193189 was observed [6]: Rb, D, Mo, H

O=C(O)CNc1ccc(-c2cnc3c(-c4ccnc5ccccc45)cnn3c2)cc1 [Compound M395]
Species in which the metabolite of LDN-193189 was observed [6]: Rb, D, Mo, H

Cc1cc(-c2cnn3cc(-c4ccc(OCCO)nc4)cnc23)c2ccccc2n1 [Compound M397]
Species in which the metabolite of Compound 2 was observed [5]: H, M | Species in which the metabolite of Compound 3 was observed [5]: H, M

Cc1cc(-c2cnn3cc(-c4ccc(OCC(=O)O)nc4)cnc23)c2ccccc2n1 [Compound M411]
Species in which the metabolite of Compound 3 was observed [5]: H, M

O=C1CN(c2ccc(-c3cnc4c(-c5ccnc6ccccc56)cnn4c3)cc2)CCN1 [Compound M420]
Species in which the metabolite of LDN-193189 was observed [6]: M, R, Rb, D, Mo, H

Oc1cc(-c2cnn3cc(-c4ccc(N5CCNCC5)cc4)cnc23)c2ccccc2n1 [Compound M422c]
Species in which the metabolite of LDN-193189 was observed [6]: all species except dog

N#CC1CNCCN1c1ccc(-c2cnc3c(-c4ccnc5ccccc45)cnn3c2)cc1 (stereo not shown) [Compound M431]
Species in which the metabolite of LDN-193189 was observed [6]: M, R, Rb, D, Mo, H

NCCN(CC(=O)O)c1ccc(-c2cnc3c(-c4ccnc5ccccc45)cnn3c2)cc1 [Compound M438]
Species in which the metabolite of LDN-193189 was observed [6]: M, R, Rb, D, Mo, H

N#CC1CNC(=O)CN1c1ccc(-c2cnc3c(-c4ccnc5ccccc45)cnn3c2)cc1 (stereo not shown) [Compound M445]
Species in which the metabolite of LDN-193189 was observed [6]: M, R, Rb, D, Mo, H

O=c1cc(-c2cnn3cc(-c4ccc(OCCN5CCCCC5)nc4)cnc23)c2ccccc2[nH]1 [Compound M466d]
Species in which the metabolite of Compound 2 was observed [5]: H, M

c1ccc2c(-c3cnn4cc(-c5ccc(N6CCNCC6)cc5)cnc34)ccnc2c1 [LDN-193189, reference compound]
pIC50 (ALK3): 6.23 | half-life at 1 μM [1]: > 30 min | Papp [2]: 3200 nm/s | solubility at 6 h [3]: 1.1 µg/mL (≈ 2.71 µM) | plasma t1/2 [7]: 96 min | efficacy in an animal model of FOP (mouse FOP disease model): efficacious | formation of M422c on addition of XO inhibitor allopurinol ([4]; human liver cytosol, allopurinol 0.1 mM): did not result in a change | formation of M422c in the presence of AO inhibitor menadione ([4]; human liver cytosol, menadione 1 mM): reduced | glucuronide conjugates ([6]; UDPGA 2 mM): no glucuronide conjugates observed | GSH trapping of reactive metabolites ([6]; liver microsomes from any species, GSH 2 mM): no “soft electrophiles” were produced | rank ordering of the metabolic conversion in liver microsomes ([6]; liver microsomes, no cytosol added): dog > rabbit > mouse > human ∼ monkey > rat | extent of metabolic conversion to M422c, order of species ([6]; liver preparations with cytosol): monkey > rabbit > human > mouse > rat with no conversion observed in dog liver preparations

CN1CCC[C@H]1c1cccnc1 [Nicotine, reference compound]
cyanide adducts in KCN trapping ([6]; liver microsomes, KCN 0.1 mM): produced the expected cyanide derivatives

C[C@]12CC[C@H]3[C@@H](CCC4=CC(=O)CC[C@@]43C)[C@@H]1CC[C@@H]2O [testosterone, reference compound]
metabolite formation of positive control ([4]; human liver microsomes, 100 μM, 20 min): showed the expected metabolite formation
